Source: US9296716B2, “Androgen receptor ligands” (THE PROVOST, FELLOWS, FOUNDATION SCHOLARS, & THE OTHER …, priority 2011, dated 2016)
Changes are numbered by the printed parent chain. Entries after “also recorded” stand apart in the source; their conditions may differ. Where two headings read alike, the source gives them in different places.

How the values were obtained:
AR-LBD wt = biological target: T1, AR-LBD wt (Homo sapiens, UniProt P10275); test: Lanthascreen TR-FRET AR coactivator (D11-FxxLF) assay, AR-LBD wt; assay type: biochemical; details: for type of AR antagonism (full / partial): TR-FRET in agonist and antagonist mode; for IC50: TR-FRET, D11-FxxLF peptide, DHT = EC80
T1 sequence (P10275 669-900 limits assumed): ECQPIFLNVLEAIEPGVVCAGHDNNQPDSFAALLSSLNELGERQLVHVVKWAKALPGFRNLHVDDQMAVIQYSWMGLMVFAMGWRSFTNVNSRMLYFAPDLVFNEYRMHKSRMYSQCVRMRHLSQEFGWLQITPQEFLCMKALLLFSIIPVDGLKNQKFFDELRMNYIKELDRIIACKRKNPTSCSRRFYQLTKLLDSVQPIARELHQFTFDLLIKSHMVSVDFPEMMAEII

[1] = biological target: T2, AR LBP (AR-LBD and Fluormone complex) (Rattus norvegicus, UniProt P15207); test: Fluorescence polarization (PolarScreen) AR competitor assay; assay type: binding; details: for displacement of bound fluorescently-labelled ligand from the LBP: FP assay
T2 construct: purchased Invitrogen P3018
T2 sequence (P15207 651-882 limits assumed): T1 sequence (P10275 669-900 limits assumed)
Text: The TR-FRET assay cannot differentiate between direct coactivator antagonists acting on the LBD surface and ‘classical’ AR antagonists which also functionally disrupt coactivator recruitment by displacing DHT from the ligand binding pocket.
(§1) Fluorescence polarization assays are susceptible by fluorescence interference/aggregation and light scattering issues by compounds present in the wells. This could lead to false positive or false negative hits. This problem is addressed in and the presence of false ‘hits’ can be determined by plotting the total fluorescence intensity of the assay versus the anisotropy for each compound.
(§2) To minimize the possibility of such false negative or positive reporting, the FP data was rigorously interrogated through examination of both auto-fluorescence and aggregation (FIG. 3). […] Diarylhydrazides are AR Potential Selective Coactivator Interaction Disruptors
PolarScreen Androgen Receptor Competitor Assay Kit Green (Invitrogen, cat no. P3018) was used to investigate the binding of the test compound to the LBP site, occupied by a high affinity ligand (Fluormone).
100× test compound solutions in DMSO were diluted in AR green buffer (Invitrogen) to achieve 2× concentrations and placed in a 384 well plate (Corning, cat no. 3576) with 40 μl volume capacity. AR-LBD was supplemented with 5 mM DTT to prevent protein degradation. AR-LBD and Fluormone (2×) mix are prepared separately and then added to each compound dilution to achieve a final concentration LBD-fluormone of 50 nM and 2 nM respectively. Plates were incubated protected from light for at least 4 hours. Controls included a maximum mP positive control, which consists of the AR-LBD and fluormone mix (2×), and a minimum mP control, containing only Fluormone (2×). A vehicle control was added to account for DMSO effect, and a blank control containing buffer only. Fluorescence polarization was measured with PHERAstar equipment (BMG LabTech) using an optic module with excitation at 485 nm and emission at 530 nm.

[2] = biological target: T3, Progesterone Receptor (PR) LBD (Homo sapiens, UniProt P06401); test: TR-FRET SRC1-4 coactivator recruitment assay, PR LBD; assay type: biochemical; details: Progesterone = EC80; for effect on PR recruitment of fluorescent labelled SRC1-4: 100 μM to 45 nM; for IC50: TR-FRET, ± SEM (n = 6), read-out: NR LBDs IC50 (μM) PR
T3 construct: purchased Invitrogen PV4666
T3 sequence (P06401 679-913 limits assumed): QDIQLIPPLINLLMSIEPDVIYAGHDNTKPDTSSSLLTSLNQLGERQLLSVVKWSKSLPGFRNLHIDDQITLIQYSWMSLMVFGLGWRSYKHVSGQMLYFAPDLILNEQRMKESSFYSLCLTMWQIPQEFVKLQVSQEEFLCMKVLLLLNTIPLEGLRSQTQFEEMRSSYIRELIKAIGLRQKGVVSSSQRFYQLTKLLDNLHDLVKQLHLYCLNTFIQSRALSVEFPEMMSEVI
Protocol: (§3) Compound binding affinities for Progesterone Receptor (PR), Glucocorticoid Receptor (GR), Estrogen Receptor alpha and Estrogen Receptor beta were determined using TR-FRET (Table 2).
(§4) Lanthascreen TR-FRET AR Coactivator Assay kit (Invitrogen, cat no. PV4381) was used to screen for potential coactivator disruptors.
(§5) TR FRET values were calculated at 10 flashes per well, using a delay time of 100 μs and integration time 200 μs as recommended by the Invitrogen assay guidelines. […] A serial dilution of compounds was firstly prepared in 100×DMSO (Sigma-Aldrich) starting from the maximum desired concentration to achieve a 12 point range concentration using 96-well polypropylene plates (Nalgene Nunc, Rochester, N.Y.). Each 100× solution was diluted to 2× concentration with TR-FRET co-regulator buffer A (Invitrogen proprietary buffer), yielding a final concentration of 1% DMSO in each well.
(§6) D11-FxxLF and Tb antibody were premixed in light protecting vials prior to use. A final concentration of DTT 5 mM was used in the assay buffer in order to prevent protein degradation. All plates (agonist and antagonist mode) were incubated between 2 and 4 hours at room temperature protected from light prior to TR-FRET measurement. […] Data was fitted using the sigmoidal dose response (variable slope) available from Graphpad Prism 5. Y=Bottom+(Top-Bottom)/(1+10^((Log IC50−X)*HillSlope))
(§7) The same procedure was used for AR T877A (Invitrogen cat no. PV4667), PR (Invitrogen cat no. PV4666), ER-α (Invitrogen cat no. PV4544), ER-β (Invitrogen cat no. PV4541) and GR (Invitrogen cat no. PV4683). The assay was adapted to exclude possible non-specific aggregation mechanism of inhibition by adding very low concentration of detergent Triton X-100 (0.001%) to the assay buffer following the Shoichet review guidelines [Shoichet BK (2006) Screening in a spirit haunted world. Drug Discov Today 11:607-615].

[3] = biological target: T4, Estrogen Receptor alpha (ER-α) LBD (Homo sapiens, UniProt P03372); test: TR-FRET PGC1-α coactivator recruitment assay, ERα LBD; assay type: biochemical; details: Estradiol = EC80; for effect on ERα recruitment of fluorescent labelled PGC1-α: 100 μM to 45 nM; for IC50: TR-FRET, ± SEM (n = 6), read-out: NR LBDs IC50 (μM) ER-α
T4 sequence (P03372 311-547 limits assumed): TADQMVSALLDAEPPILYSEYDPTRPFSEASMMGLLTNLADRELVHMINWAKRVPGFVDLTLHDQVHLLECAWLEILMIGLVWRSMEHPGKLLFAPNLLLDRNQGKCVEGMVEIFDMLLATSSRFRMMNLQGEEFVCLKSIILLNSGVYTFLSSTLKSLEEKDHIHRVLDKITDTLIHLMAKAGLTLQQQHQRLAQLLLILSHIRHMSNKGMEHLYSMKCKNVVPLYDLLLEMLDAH
Protocol: as §3
(§8) Selectivity of the diarylhydrazide scaffold for the AR was determined through a TR-FRET assay in ERα (FIGS. 8A & 9A1) and ERR (FIGS. 8B & 9A2). […] The non-LBP nature of this inhibition was confirmed by a FP assay (FIGS. 9C, 9B1 & 9B2).
as §4, §5, §6, §7

[4] = Solubility in FP assay buffer (fluorescence interference/aggregation check); assay type: physicochemical; details: high concentration (50 μM)
Text: as §1, §2

[5] = biological target: Estrogen Receptor beta (ER-β) LBD (Homo sapiens, UniProt Q92731); test: TR-FRET PGC1-α coactivator recruitment assay, ERβ LBD; assay type: biochemical; details: Estradiol = EC80; for effect on ERβ recruitment of fluorescent labelled PGC1-α: 100 μM to 45 nM; for IC50: TR-FRET, ± SEM (n = 6), read-out: NR LBDs IC50 (μM) ER-β
Sequence of Estrogen Receptor beta (ER-β) LBD (Q92731 264-498 limits assumed): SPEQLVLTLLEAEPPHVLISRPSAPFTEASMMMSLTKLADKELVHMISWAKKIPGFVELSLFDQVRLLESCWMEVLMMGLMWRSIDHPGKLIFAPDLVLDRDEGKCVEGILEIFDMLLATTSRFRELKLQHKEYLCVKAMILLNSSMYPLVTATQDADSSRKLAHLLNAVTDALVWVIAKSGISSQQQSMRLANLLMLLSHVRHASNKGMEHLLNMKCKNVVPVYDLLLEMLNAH
Protocol: as §3, §8, §4, §5, §6, §7

[6] = biological target: T5, Glucocorticoid Receptor (GR) LBD (Homo sapiens, UniProt P04150); test: TR-FRET SRC1-4 coactivator recruitment assay, GR LBD; assay type: biochemical; details: Dexamethasone = EC80; for effect on SRC1-4 recruitment by GR LBD: 100 μM to 12.5 μM or single point 100 μM; for IC50: TR-FRET, ± SEM (n = 6), read-out: NR LBDs IC50 (μM) GR
T5 construct: purchased Invitrogen PV4683
T5 sequence (P04150 524-758 limits assumed): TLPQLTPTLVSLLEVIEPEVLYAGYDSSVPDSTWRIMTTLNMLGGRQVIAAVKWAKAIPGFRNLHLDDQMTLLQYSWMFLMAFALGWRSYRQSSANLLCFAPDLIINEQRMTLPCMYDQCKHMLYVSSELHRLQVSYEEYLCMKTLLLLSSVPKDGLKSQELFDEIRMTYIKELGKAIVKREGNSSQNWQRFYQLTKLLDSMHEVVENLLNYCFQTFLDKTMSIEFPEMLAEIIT
Protocol: as §3
Dexamethasone bound receptor recruitment of the fluorescently labelled SCR1-4 coactivator was unimpaired at screening concentrations up to 100 μM for all the diarylhydrazides evaluated (FIG. 5).
as §4, §5, §6, §7

LNCaP cells = test: LNCaP cell proliferation assay (androgen deprived, AlamarBlue); assay type: cell-based; details: 10^−10M, 0.1% DMSO, steroid depleted conditions
Protocol: To determine the optimal DHT concentration and length of treatment required for cell proliferation assays, we tested a range of DHT concentrations in 0.1% DMSO for 5 or 7 days in LNCaP cells cultured in FBS stripped phenol red free media. […] Media and treatments were replaced every second incubation day (FIGS. 12 A and B)
For cell viability (end point) assays LNCaP, PC-3 and PWR-1E cells were seeded at 2.5*10^4/ml density in 200 μl volume of a 96-well plate in triplicate and incubated for 24 hours prior testing. Test compounds were included at different concentrations to achieve a final concentration of 0.5% DMSO in each well. Effect of 0.5% DMSO on cell-viability was also evaluated. Cell viability was assessed after 24 hours of treatment using 10% Alamar Blue reagent (Invitrogen) for each well. Cell viability was monitored by the reduction of resazurin, a blue, cell-permeable and non-toxic compound, to resorufin, a red and highly fluorescent product. Viable cells continuously convert resazurin to resorufin, increasing the overall colour and fluorescence of the media surrounding cells. Fluorescence intensity can be quantitatively determined with a fluorescence microplate reader at excitation/emission 544 nm/590 nm (Spectramax Gemini). For hormone dependent cell proliferation assays in androgen deprived LNCaP cells, cells were seeded at 2*10^4 cells/ml in a 24-well plate in triplicate. Cells were plated in phenol red free RPMI Glutamax (Invitrogen) supplemented with 10% charcoal-stripped FBS to deplete endogenous steroids 48 hours prior the assay as described in previous reports. […] Cells were treated with different concentrations of test compounds with or without 0.1 nM DHT to achieve a final concentration of 0.1% DMSO in each well. A control for the vehicle was included to ensure no effect on viability could be detected. Media and treatments were replaced every second day, after washing the cells twice with 1×PBS. Supernatants were collected after five days for secreted PSA levels evaluation and cell proliferation was assessed for the same plate using Alamar Blue in order to exclude non-specific effects due to toxicity issues.

AR-LBD T877A mutant = biological target: T6, AR-LBD T877A mutant (Homo sapiens, UniProt P10275, T878A); test: TR-FRET coactivator assay, AR T877A mutant; assay type: biochemical; details: D11-FxxLF peptide, DHT = EC80
T6 construct: purchased Invitrogen PV4667
T6 sequence (P10275 669-900 T878A): T1 sequence (P10275 669-900 limits assumed) with T210A

[7] = maximal concentration of 100 μM
[8] = read-out: Activity (AR wt TR-FRET)

SMILES	type of AR antagonism (full / partial) (AR-LBD wt)	effect on PR recruitment of fluorescent labelled SRC1-4 [2]	IC50 [2]	effect on ERα recruitment of fluorescent labelled PGC1-α [3]	IC50 [3]	effect on ERβ recruitment of fluorescent labelled PGC1-α [5]	IC50 [5]	effect on SRC1-4 recruitment by GR LBD [6]	IC50 [6]	other results
O=C(N/N=C/c1cccc(O)c1O)c1cc2ccccc2cc1O [MDG173]	full AR antagonists	–	–	–	–	–	–	–	–	displacement of bound fluorescently-labelled ligand from the LBP [1]: inability to displace
O=C(N/N=C/c1cc2ccccc2cc1O)c1cc2ccccc2cc1O [MDG483]	full AR antagonists	partially inhibit	8.4 ± 1.4 µM	partially inhibit	10.2 ± 3 µM	partially inhibit	12 ± 0.4 µM	do not affect	> 100 µM	solubility in the chosen assay buffer [4]: solubility issues; inhibition at 1 µM ([1]; FP, 1 μM, read-out: inhibition of the LBD-F complex): ~0%
C[C@]12CCC(=O)C[C@@H]1CC[C@@H]1[C@@H]2CC[C@]2(C)[C@@H](O)CC[C@@H]12 [DHT, dihydrotestosterone, reference compound]	–	–	–	–	–	–	–	–	–	increase of LNCaP cell proliferation (LNCaP cells): 2 fold
COc1cc(/C=N/NC(=O)c2cc3c(ccc4ccccc43)o2)cc(I)c1O [MDG15]	full AR antagonists	–	–	–	–	–	–	–	–	displacement of bound fluorescently-labelled ligand from the LBP [1]: inability to displace
CCCOc1ccc(/C=N/NC(=O)c2cc3c(ccc4ccccc43)o2)cc1 [MDG508]	full AR antagonists	partially inhibit	5.9 µM	partially inhibit	4 ± 1.4 µM	partially inhibit	2.9 µM	do not affect	> 100 µM	–
O=C(N/N=C/c1cc([N+](=O)[O-])ccc1O)c1cc2ccccc2cc1O [MDG614]	full AR antagonists	–	–	–	> 100 µM	–	> 100 µM	do not affect	> 100 µM	effect on PR LBD recruitment of fluorescent labelled SRC1-4 coactivator [2, 7]: inhibit; IC50 (AR-LBD wt; [8]): 33.4 ± 4.7 µM; effect on ERα LBD recruitment of fluorescent labelled PGC1-α coactivator [3, 7]: inhibit; effect on ERβ LBD recruitment of fluorescent labelled PGC1-α coactivator [5, 7]: inhibit
O=C(N/N=C/c1cc(Br)ccc1O)c1cc2ccccc2cc1O [MDG292]	full AR antagonism; also recorded: full AR antagonists	partially inhibit	22.5 ± 5.4 µM	partially inhibit	> 100 µM	partially inhibit	> 100 µM	do not affect	> 100 µM	IC50 (AR-LBD wt; read-out: AR (wt)): 13.3 ± 3.1 µM; IC50 (AR-LBD wt; [8]): 13.3 ± 3.1 µM; IC50 (AR-LBD T877A mutant): 12.4 ± 2.2 µM
